Patent publication US20050282786A1, “Method for reducing c-rective protein levels with non-antibacterial tetracycline formulations” (priority 2002, published 2005)
Several values for one entry are separate records, joined by “and”; a condition that tells them apart may be missing. Equal entries are not always repeated. Structures can show the parent of a compound that is named as a salt. Each block holds one compound with its values, some of them ahead of it.

How the values were obtained:
[1] = CMT-3 serum levels in humans; assay type: in vivo, human; conditions: dose of about 10 to about 20 mg/day
Description: Non-antibacterial tetracycline compounds can be used in higher amounts than antibacterial tetracyclines, while avoiding the indiscriminate killing of bacteria, and the emergence of resistant bacteria. For example, 6-demethyl-6-deoxy-4-dedimethylaminotetracycline (CMT-3) may be administered in doses of about 10 to about 200 mg/day, or in amounts that result in serum levels in humans of about 1.0 μg/ml to about 10 μg/ml. For example, a dose of about 10 to about 20 mg/day produces serum levels in humans of about 1.0 μg/ml.

C-reactive protein (CRP) = experiment: Prospective randomized six-month study of low-dose doxycycline versus placebo: C-reactive protein levels in patients after acute coronary syndrome; assay type: in vivo, human; conditions: for 6-Month CRP level: after six months of therapy, P<0.05 vs baseline; for 6-Month CRP level / Baseline CRP level: mean ± S.E.M.; for Reduction Due To Treatment (CRP): six months vs baseline; for Baseline CRP level / Baseline CRP: study entry; for Six Month CRP: six months
Description: A prospective, randomized study was conducted over six (6) months to investigate the effectiveness of low-dose doxycycline (LDD) versus placebo, in the prevention of subsequent plaque rupture events in patients enrolled after an initial acute coronary syndrome.
Biochemical markers of inflammation were assessed at study entry and after six (6) months of therapy in a subset of patients. A total of thirty (30) patients completed the study of whom thirteen (13) were randomized to placebo and seventeen (17) to LDD. There were no significant differences in age, male gender, hypertension, diabetes, smoking, previous cardiac history, extent of coronary disease, presentation with acute myocardial infarction or unstable angina, or percutaneous coronary intervention between LDD and placebo treated patients.
At six months clinical follow-up, there was no difference in the composite endpoint of cardiovascular death, myocardial infarction or troponin-positive unstable angina in LDD compared to placebo treated patients. […] In placebo-treated patients, CRP was 5.2 μg/ml at study entry and 4.9 μg/ml at six months (P=not significant (n.s.)).
Patients with higher baseline CRP levels were reduced by 58% from 7.2 μg/ml to 3.0 μg/ml (P<0.001). In placebo-treated patients with higher baseline CRP, CRP levels were decreased by 23% (7.1 μg/ml to 5.5 μg/ml).

[2] = single dose of two 100 mg tablets, adult human; cited from earlier work
[3] = 250 mg every six hours over a twenty-four hour period; cited from earlier work
[4] = all LDD patients (n = 17), listed as Low-Dose Doxycycline
[5] = patients with higher CRP (>5 μg/ml)
[6] = patients with lower baseline CRP (≦5 μg/ml)

serum levels in humans [1]: about 1.0 μg/ml
SMILES: NC(=O)C1=C(O)CC2CC3Cc4cccc(O)c4C(=O)C3=C(O)C2(O)C1=O (stereo not drawn) [CMT-3, 4-dedimethylaminosancycline]

SMILES: C[C@H]1c2cccc(O)c2C(=O)C2=C(O)[C@]3(O)C(=O)C(C(N)=O)=C(O)[C@@H](N(C)C)[C@@H]3[C@@H](O)[C@@H]21 [LDD, doxycycline]
6-Month CRP level (C-reactive protein (CRP); all LDD patients (n = 17)): 2.6 µg/mL | 6-Month CRP level (C-reactive protein (CRP); [4]): 2.6 ± 0.4 µg/mL | Reduction Due To Treatment (CRP) (C-reactive protein (CRP); all LDD patients (n = 17)): 46% | Reduction Due To Treatment (CRP) (C-reactive protein (CRP); [4]): 45% | Baseline CRP level (C-reactive protein (CRP); all LDD patients (n = 17)): 4.8 µg/mL | Baseline CRP level (C-reactive protein (CRP); [4]): 4.8 ± 0.6 µg/mL | Reduction Due To Treatment (CRP) (C-reactive protein (CRP); [5]): 58% | Six Month CRP (C-reactive protein (CRP); patients with higher CRP (>5 μg/ml), P<0.001 vs baseline): 3.0 μg/ml and 3.0 ± 0.7^a μg/ml | Baseline CRP (C-reactive protein (CRP); [5]): 7.2 µg/mL and 7.2 ± 0.6 µg/mL | Reduction Due To Treatment (CRP) (C-reactive protein (CRP); [6]): 23% | Six Month CRP (C-reactive protein (CRP); patients with lower baseline CRP (≦5 μg/ml), n.s. vs baseline): 2.3 μg/ml and 2.3 ± 0.5^b μg/ml | Baseline CRP (C-reactive protein (CRP); [6]): 3.0 µg/mL and 3.0 ± 0.4 µg/mL

SMILES: CN(C)c1ccc(O)c2c1C[C@H]1C[C@H]3[C@H](N(C)C)C(O)=C(C(N)=O)C(=O)[C@@]3(O)C(O)=C1C2=O [minocycline HCl]
minocycline serum level, average [2]: 2.24 µg/mL

SMILES: CN(C)[C@@H]1C(O)=C(C(N)=O)C(=O)[C@@]2(O)C(O)=C3C(=O)c4c(O)cccc4[C@@](C)(O)[C@H]3C[C@@H]12 [tetracycline HCl]
peak plasma concentration [3]: approximately 3 μg/ml
